Marks after values point to notes of the source that are not given here.
Columns and labels:
Format in all cases: cell-based
human PBMC = experiment: PG levels (PGE2, PGD2, 15d-PGJ2) in culture medium of human PBMC cultured with and without TNF-α, EIA (Example 3); conditions: without TNF-α
Description: (§1) Whole blood was collected from donors in EDTA-supplemented pouches at the Etablissement Français du Sang (Brest, France). The PBMC were isolated then from whole blood under sterile conditions within 36 hours after collection. Gradient density centrifugation was carried out on Ficoll (Eurobio). After washing in RPMI 1640 medium (Eurobio), cells were suspended in RPMI 1640 medium supplemented with 10% heat-inactivated fetal calf serum (Eurobio), 2 mM glutamine (D. Dutscher), 100 U of penicillin/ml (D. Dutscher), and 100 μg of streptomycin/ml (D. Dutscher). Monocytes were selected by plastic adherence for 1 h and approximately 10^7 cells were plated in 6-well tissue culture plates (3 mL medium per well). All incubations were performed in a humidified incubator at 37° C. and 5% CO2. Cells were recovered and dispersed in 2 ml fresh incubation medium supplemented with either 7β-hydroxyEPIA, 7β-hydroxy-DHEA, or 7α-hydroxy-DHEA (in 20 μL ethanol) in the presence or absence of 0.01 μg/mL TNF-α (Sigma-Aldrich). Control incubations contained 20 μl ethanol but no steroid. Supernatants were collected after 4 h and 24 hours incubations for measurement of their PG contents and cells were used for subsequent RNA isolation. A single step extraction method using the Trizol Reagent (Invitrogen, Cergy-Pontoise, France) provided total RNA.
Commercially available EIA kits were used for the determination of PGE2 levels (Oxford Biomedical Research, UK) and 15d-PGJ2 levels (Assay designs, Euromedex, France) in culture media. Measurement of PGD2 levels was obtained using the prostaglandin D2-MOX EIA kit (Cayman Chemical, Euromedex). In this case, and prior to assay, the fresh samples were immediately treated with the MOX-HCl reagent, which converted PGD2 into PGD2-MOX, thus preventing any further chemical degradation.
(§2) All assays were carried out in triplicate and results were plotted as mean±S.E.M. One-way analysis of variance was performed followed by Duncan's multiple range tests in order to compare the differences between groups. Differences were considered statistically significant when p<0.05.

COX-2 mRNA = COX-2 mRNA in human PBMC with and without TNF-α, quantitative RT-PCR; conditions: without TNF-α
Description: as §1
(§3) cDNAs were synthesized from TURBO DNase I—treated RNA (Ambion, Huntingdon, UK) using the Superscript first strand synthesis system kit (Invitrogen). RT-PCR amplification mixtures (50 μL) contained 2.5× RealMaster Mix/20×SYBR solution (11.25 μL) (Eppendorf, Le Pecq, France) and 200 nM forward and reverse primers. Reactions were run on a RealPlex ep gradient S mastercycler (Eppendorf). The cycling conditions were 10 minutes at 95° C. and 45 cycles at 95° C., 55° C. and 68° C. for 15 seconds, 30 seconds and 30 seconds, respectively. Each assay included a standard curve of four serial dilution points of control cDNA. The HPRT1 housekeeping gene was used for quantification. All oligonucleotide primers (Table 2) were synthesized by Genecust/Distribio (Evry, France). The specificity of the amplified product was monitored by examining the melting curve of the product and confirmed by analysis on agarose gel electrophoresis.
as §2

m-PGES1 mRNA = m-PGES1 mRNA in human PBMC with and without TNF-α, quantitative RT-PCR; conditions: without TNF-α
Description: as §1, §3, §2

[1] = test system: rat spinal cord motor neurones; experiment: Neurite growth of spinal cord motor neurones in primary culture (anti β-Tubulin, In Cell Analyzer)
Description: Rat spinal motor neurones were prepared according to the method described by Martinou et al., 1992 (Martinou J C, Martinou I, Kato AC Cholinergic differentiation factor (CDF/LIF) promotes survival of isolated rat embryonic motoneurons in vitro. Neuron. 1992 April; 8(4):737-44). Briefly, pregnant female Wistar rats of 15 days gestation, were killed by cervical dislocation and the foetuses were removed from the uterus. Their spinal cords were removed and placed in ice-cold medium of Leibovitz (L15, Invitrogen, 11415-049) containing 1% of bovine serum albuminutes (BSA fatty acid free, Eurobio, Les Ulis, France, GXXBSA01-65). Meninges were carefully removed.
The spinal motor neurones were dissociated by trypsinisation for 20 minutes at 37° C. (trypsin EDTA 10× Invitrogen 15400054) diluted in PBS without calcium and magnesium (Invitrogen 2007-03). The reaction was stopped by the addition of Dulbecco Modified Eagle's Media (DMEM, Invitrogen 21969-035) containing DNase I grade II (0.1 mg/ml Roche diagnostic 104159) and 10% foetal calf serum (FCS, Invitrogen 10270098). The suspension was then mechanically dissociated by 3 passages through a 10 ml pipette. Cells were then centrifuged at 580 g for 10 minutes at room temperature. The pellet of dissociated cells was re-suspended in L15 medium and the resulting suspension was enriched in motor neurones by centrifugation at 180×g for 10 minutes at room temperature on a layer of BSA solution (3.5%) in L15 medium. The supernatant was discarded and the pellet was re-suspended in L15 medium supplemented with DNase I (1%). Then the suspension was layered over a cushion of Optiprep (d: 1.06 g/ml; Abcys, Paris, France; 1030061) and centrifuged at 335×g for 15 minutes at room temperature. The upper phase, containing the purified motor neurones, was collected, re-suspended with L15 medium and centrifuged at 800×g for 10 minutes at room temperature. The cell pellet was finally resuspended in a defined culture medium consisting of neurobasal medium supplemented with 2% B27, 2 mM L-Glutamine and Penicillin 50 Ul/ml-Streptomycin 50 μg/ml. Viable cells were counted in a Neubauer cytometer using the trypan blue exclusion test (Sigma T8154) then plated at 30 000 cells/well in 96 well-plates (pre-coated with poly-1-lysine; Nunclon, Invitrogen P5899) and cultured at 37° C. in a humidified air (95%) CO2 (5%) atmosphere.
The culture medium was changed into a defined culture medium after a 12 hours incubation period following the conditions described below:
BDNF 50 ng/ml and 10 ng/ml (in 0.1% DMSO)
After 6 hours, 12 hours and 24 hours of incubation with, cells were fixed for 5 minutes in an ethanol/acetic acid solution (95%/5%) at −20° C. and rinsed 3 times in PBS.
Motor neurones and sensory neurones were labelled by monoclonal anti β-Tubulin antibody (Sigma T8660) diluted at 1:400 in incubation solution (PBS with 5% of FCS and 0.1% of saponin, Sigma S-7900). This antibody specifically labels neurone cell bodies and neurites.
After 2 hours of incubation, the cells were washed in PBS and incubated with Alexa Fluor 488 goat anti mouse IgG (Molecular Probes A11001) diluted at 1:300 in incubation solution to reveal the 8-Tubulin III antibodies.
Analysis of the total length of neurones labelled with anti β-Tubulin antibodies (neurones) were carried out using In Cell Analyzer 1000 3.2.Workstation software.
The results were expressed in percentage compared to the vehicle. Comparison of groups was carried out using the unpaired T test.

CC12CCC3C(C1CCC2=O)[C@@H](O)C=C1C[C@@H](O)CCC13C (stereo partly drawn) [7β-hydroxy-DHEA]
15d-PGJ2 (human PBMC; 1 nM, 4 h): 0.45 ± 0.016 ng/mL
PGD2 (human PBMC; 1 nM, 4 h): 0.18 ± 0.002 ng/mL
PGE2 (human PBMC; 1 nM, 4 h): 0.22 ± 0.003 ng/mL
15d-PGJ2 (human PBMC; 1 nM, 24 h): 0.66 ± 0.013^a ng/mL
PGD2 (human PBMC; 1 nM, 24 h): 0.21 ± 0.009^a ng/mL
PGE2 (human PBMC; 1 nM, 24 h): 0.22 ± 0.003 ng/mL
15d-PGJ2 (human PBMC; 10 nM, 4 h): 0.40 ± 0.014 ng/mL
PGD2 (human PBMC; 10 nM, 4 h): 0.14 ± 0.001 ng/mL
PGE2 (human PBMC; 10 nM, 4 h): 0.22 ± 0.013 ng/mL
15d-PGJ2 (human PBMC; 10 nM, 24 h): 0.62 ± 0.008^a ng/mL
PGD2 (human PBMC; 10 nM, 24 h): 0.24 ± 0.001^a ng/mL
PGE2 (human PBMC; 10 nM, 24 h): 0.24 ± 0.002 ng/mL
15d-PGJ2 (human PBMC; 100 nM, 4 h): 0.42 ± 0.030 ng/mL
PGD2 (human PBMC; 100 nM, 4 h): 0.19 ± 0.008 ng/mL
PGE2 (human PBMC; 100 nM, 4 h): 0.22 ± 0.002 ng/mL
15d-PGJ2 (human PBMC; 100 nM, 24 h): 0.56 ± 0.020^a ng/mL
PGD2 (human PBMC; 100 nM, 24 h): 0.34 ± 0.025^a ng/mL
PGE2 (human PBMC; 100 nM, 24 h): 0.24 ± 0.004 ng/mL
COX-2 (mRNA), mRNA production relative to controls (COX-2 mRNA; 1 nM, 4 h): 1.20 ± 0.179
COX-2 (mRNA), mRNA production relative to controls (COX-2 mRNA; 1 nM, 24 h): 1.76 ± 0.672
COX-2 (mRNA), mRNA production relative to controls (COX-2 mRNA; 10 nM, 4 h): 1.33 ± 0.039
COX-2 (mRNA), mRNA production relative to controls (COX-2 mRNA; 10 nM, 24 h): 1.54 ± 0.630
COX-2 (mRNA), mRNA production relative to controls (COX-2 mRNA; 100 nM, 4 h): 5.09 ± 1.166^a
COX-2 (mRNA), mRNA production relative to controls (COX-2 mRNA; 100 nM, 24 h): 2.78 ± 0.580^a
mPGES1 (mRNA), mRNA production relative to controls (m-PGES1 mRNA; 1 nM, 4 h): 0.43 ± 0.057^b
mPGES1 (mRNA), mRNA production relative to controls (m-PGES1 mRNA; 1 nM, 24 h): 1.94 ± 0.422^a
mPGES1 (mRNA), mRNA production relative to controls (m-PGES1 mRNA; 10 nM, 4 h): 0.67 ± 0.071^b
mPGES1 (mRNA), mRNA production relative to controls (m-PGES1 mRNA; 10 nM, 24 h): 1.64 ± 0.338^a
mPGES1 (mRNA), mRNA production relative to controls (m-PGES1 mRNA; 100 nM, 4 h): 0.82 ± 0.085^b
mPGES1 (mRNA), mRNA production relative to controls (m-PGES1 mRNA; 100 nM, 24 h): 1.64 ± 0.322^a

B1: BDNF: Brain derived nerve growth factor, a specific growth factor for motor neurones; reference compound (protein, UniProt P23560 19-247, looked up)
Neurotrophic factor BDNF …: APMKEANIRGQGGLAYPGVRTHGTLESVNGPKAGSRGLTSLADTFEHVIEELLDEDQKVRPNEENNKDADLYTSRVMLSSQVPLEPPLLFLLEEYKNYLDAANMSMRVRRHSDPARRGELSVCDSISEWVTAADKKTAVDMSGGTVTVLEKVPVSKGQLKQYFYETKCNPMGYTKEGCRGIDKRHWNSQCRTTQSYVRALTMDSKKRIGWRFIRIDTSCVCTLTIKRGR
Neurites length per field, % Vehicle ([1]; 10 ng/ml, 6 hours): 193%
Neurites length per field, Mean ([1]; 10 ng/ml, 6 hours): 489.5 μm
Neurites length per field, % Vehicle ([1]; 10 ng/ml, 12 hours): 173%
Neurites length per field, Mean ([1]; 10 ng/ml, 12 hours): 731.3 μm
Neurites length per field, % Vehicle ([1]; 10 ng/ml, 24 hours): 170%
Neurites length per field, Mean ([1]; 10 ng/ml, 24 hours): 366.1 μm
Neurites length per field, % Vehicle ([1]; 50 ng/ml, 6 hours): 180%
Neurites length per field, Mean ([1]; 50 ng/ml, 6 hours): 457.2 μm
Neurites length per field, % Vehicle ([1]; 50 ng/ml, 12 hours): 152%
Neurites length per field, Mean ([1]; 50 ng/ml, 12 hours): 643.7 μm
Neurites length per field, Mean ([1]; 50 ng/ml, 24 hours): 293.6 μm
